In patent publication US20240238300A1, “TREATMENT METHODS FOR SUBJECTS WITH CANCER HAVING AN ABERRATION IN EGFR AND/OR HER2” (TAIHO PHARMACEUTICAL CO., LTD., priority 2021, published 2024):
Like-named read-outs stand apart in the source and are kept apart here.

What was measured:
[1] = system: MCF10A_HER2/insYVMA_v human mammary epithelial xenografts; assay: antitumor effect in nude mice bearing MCF10A_HER2/insYVMA_v xenografts; format: in vivo; settings: for T/C ratio of the mean tumor volume: Day 15
Protocol: The antitumor effect of Compound (1) was evaluated in a nude mouse xenograft model of MCF10A_HER2/insYVMA_v. MCF10A_HER2/insYVMA_v was established as stably growing cells in vivo derived from MCF10A HER2/insYVMA (a human mammary epithelial cell line engineered to express the HER2 exon 20 insertion mutation A775_G776insYVMA) xenografts subcutaneously transplanted into nude mice. Compound (1) suspensions (using 0.5% w/v HPMC as vehicle) were administered orally once daily to mice at doses of 7.8, 12.5, or 20.0 mg/kg/day for 14 days. The control group received 0.5% weight per volume (w/v) hydroxypropyl methylcellulose (HPMC) solution orally once daily for 14 days.
In addition, the antitumor effect of poziotinib (an irreversible inhibitor of EGFR, HER2, and HER4) was also evaluated using this model.

[2] = system: intracranial NCI-N87-luc human gastric carcinoma xenografts; assay: intracranial antitumor effect, NCI-N87-luc xenografts; format: in vivo, nude mice; settings: Day 22
Protocol: The intracranial antitumor effect of Compound (1) was evaluated using Compound (1) in nude mice intracranially implanted with NCI-N87-luc cells, which were engineered to stably express the luciferase gene using the HER2-overexpressing NCI-N87 human gastric carcinoma cell line. Compound (1) dosing suspensions using 0.5% w/v HPMC as vehicle were prepared with Compound (1) at 3 dose levels (16.0, 20.0, or 25.0 mg/kg/day) and administered PO QD for 21 days. The control group received 0.5% weight per volume (w/v) hydroxypropyl methylcellulose (HPMC) solution orally once daily for 21 days. The antitumor effect of poziotinib was also evaluated using this model. Poziotinib was administered PO QD for 21 days at 2 dose levels (0.5 or 1.0 mg/kg/day).

[3] = pharmacokinetics after multiple oral administration for 7 days; format: in vivo, male nude mice; settings: for AUC(0-t): male, nude, mouse, plasma, read-out: AUC0-24
Protocol: (§1) Compound (1) was orally administered. The concentrations of Compound (1) were quantified using LC-MS/MS for the PK studies. ^13C-labeled Compound (1) was used as an internal standard.
Pharmacokinetics in nude mice after multiple oral administration for 7 days. Plasma concentration profiles and PK parameters of Compound (1) on Day 7 were determined in male nude mice after once daily oral administrations for 7 days at doses of 6.25, 12.5, and 25 mg/kg (FIGS. 5A and 5B, and Table 5). The Cmax, AUClast, and AUC0-24 values increased in a dose-dependent manner.

[4] = pharmacokinetics after single oral administration; format: in vivo, male nude mice; settings: plasma; for AUC(0-t): male, nude, mouse, read-out: AUC0-24
Protocol: as §1
Pharmacokinetics in nude mice after single oral administration. Plasma concentration profiles and PK parameters of Compound (1) were determined in male nude mice following a single oral administration at doses of 6.25, 12.5, and 25 mg/kg (FIGS. 4A and 4B, and Table 4). The Cmax, AUClast, and AUC0-24 values increased in a dose dependent manner.

human BCRP = target: T1, human BCRP (Homo sapiens, UniProt Q9UNQ0); settings: not told
T1 sequence (Q9UNQ0 1-655): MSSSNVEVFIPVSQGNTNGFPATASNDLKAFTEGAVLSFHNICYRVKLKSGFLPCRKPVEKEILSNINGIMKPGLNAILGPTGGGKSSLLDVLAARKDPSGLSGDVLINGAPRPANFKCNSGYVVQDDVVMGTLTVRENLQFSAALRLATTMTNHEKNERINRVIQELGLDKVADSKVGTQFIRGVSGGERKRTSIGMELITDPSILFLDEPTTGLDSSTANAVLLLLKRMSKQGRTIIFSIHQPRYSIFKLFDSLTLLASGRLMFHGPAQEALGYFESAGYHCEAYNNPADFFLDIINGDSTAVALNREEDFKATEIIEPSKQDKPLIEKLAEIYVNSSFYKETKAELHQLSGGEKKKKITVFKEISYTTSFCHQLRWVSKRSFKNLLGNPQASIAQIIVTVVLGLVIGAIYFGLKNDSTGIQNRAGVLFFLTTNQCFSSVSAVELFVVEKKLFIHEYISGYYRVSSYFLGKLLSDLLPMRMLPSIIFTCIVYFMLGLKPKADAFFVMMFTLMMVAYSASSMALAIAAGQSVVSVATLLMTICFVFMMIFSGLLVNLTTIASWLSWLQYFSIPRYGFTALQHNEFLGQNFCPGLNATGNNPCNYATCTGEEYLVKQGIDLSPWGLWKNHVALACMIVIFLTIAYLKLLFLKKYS

[5] = system: NCI-H1975 EGFR D770_N771insSVD cells; assay: growth inhibitory effect in human cancer cell lines (GI50); format: cell-based; settings: lung cancer, EGFR exon 20 insertion
[6] = plasma protein binding, equilibrium dialysis; format: in vitro ADME
Protocol: Plasma protein binding of Compound (1). Plasma protein binding of Compound (1) in mice, rats, dogs, monkeys, and humans was determined using the equilibrium dialysis method.

[7] = Day 7, once daily oral 6.25 mg/kg for 7 days
[8] = Day 7, once daily oral 12.5 mg/kg for 7 days
[9] = Day 7, once daily oral 25 mg/kg for 7 days

**Q.** For `C=CC(=O)N1C[C@H](n2c(C#CC3CC3)c(C(=O)N[C@H](C)c3ccccc3)c3c(N)ncnc32)C[C@@H]1C` [Compound (1), 7-((3R,5S)-1-acryloyl-5-methylpyrrolidin-3-yl)-4-amino-6-(cyclopropylethynyl)-N—((R)-1-phenylethyl)-7H-pyrrolo[2,3-d]pyrimidine-5-carboxamide], which “T/C ratio of the mean tumor volume” value ([1]; 7.8 mg/kg/day orally once daily 14 days) is on record?
**A.** 52.8%

**Q.** What about the “T/C ratio of the mean tumor volume” value ([1]; 12.5 mg/kg/day orally once daily 14 days) of the same molecule?
**A.** 17.4%

**Q.** What about the “T/C ratio of the mean tumor volume” value ([1]; 20.0 mg/kg/day orally once daily 14 days) of the same molecule?
**A.** 8.7%

**Q.** And the “toxicity (deaths, clinical signs, body weight loss ≥20%)” value ([1]; 14 days treatment)?
**A.** acceptable toxicity

**Q.** What about the “T/C ratio of the mean total flux” value ([2]; 16.0 mg/kg/day PO QD 21 days) of the same molecule?
**A.** 16.9%

**Q.** And the “mean body weight change (BWC)” value ([2]; 16.0 mg/kg/day)?
**A.** 1.4%

**Q.** What about the “T/C ratio of the mean total flux” value ([2]; 20.0 mg/kg/day PO QD 21 days) of the same molecule?
**A.** 4.7%

**Q.** What about the “mean body weight change (BWC)” value ([2]; 20.0 mg/kg/day) of the same molecule?
**A.** −0.4%

**Q.** What about the AUClast [3, 7] of the same molecule?
**A.** 972 ± 239 ng·h/mL

**Q.** And the Cmax [3, 7]?
**A.** 1170 ± 300 ng/mL

**Q.** What about the Tmax [3, 7] of the same molecule?
**A.** 15 ± 0 min

**Q.** And the AUC0-24 [3, 8]?
**A.** 2830 ± 400 ng·h/mL

**Q.** And the AUClast [3, 8]?
**A.** 2800 ± 460 ng·h/mL

**Q.** What about the Cmax [3, 8] of the same molecule?
**A.** 2040 ± 230 ng/mL

**Q.** And the Tmax [3, 8]?
**A.** 19.8 ± 8.4 min

**Q.** What about the AUClast [3, 9] of the same molecule?
**A.** 6180 ± 310 ng·h/mL

**Q.** What about the Cmax [3, 9] of the same molecule?
**A.** 3710 ± 360 ng/mL

**Q.** And the Tmax [3, 9]?
**A.** 25.2 ± 8.4 min

**Q.** And the AUC(0-t) [3, 7]?
**A.** 1030 ± 280 ng·h/mL

**Q.** And the AUC(0-t) [3, 9]?
**A.** 6400 ± 430 ng·h/mL

**Q.** What about the AUC(0-t) ([4]; single oral 6.25 mg/kg) of the same molecule?
**A.** 822 ± 208 ng·h/mL

**Q.** And the AUC(0-t) ([4]; single oral 25 mg/kg)?
**A.** 5230 ± 620 ng·h/mL

**Q.** And the AUClast ([4]; single oral 6.25 mg/kg)?
**A.** 795 ± 229 ng·h/mL

**Q.** What about the Cmax ([4]; single oral 6.25 mg/kg) of the same molecule?
**A.** 601 ± 111 ng/mL

**Q.** What about the Tmax ([4]; single oral 6.25 mg/kg) of the same molecule?
**A.** 19.8 ± 8.4 min

**Q.** And the AUC0-24 ([4]; single oral 12.5 mg/kg)?
**A.** 2010 ± 230 ng·h/mL

**Q.** What about the AUClast ([4]; single oral 12.5 mg/kg) of the same molecule?
**A.** 2010 ± 230 ng·h/mL

**Q.** And the Cmax ([4]; single oral 12.5 mg/kg)?
**A.** 1590 ± 220 ng/mL

**Q.** What about the Tmax ([4]; single oral 12.5 mg/kg) of the same molecule?
**A.** 15 ± 0 min

**Q.** What about the AUClast ([4]; single oral 25 mg/kg) of the same molecule?
**A.** 5080 ± 820 ng·h/mL

**Q.** And the Cmax ([4]; single oral 25 mg/kg)?
**A.** 3580 ± 190 ng/mL

**Q.** What about the Tmax ([4]; single oral 25 mg/kg) of the same molecule?
**A.** 15 ± 0 min

**Q.** What about the “net flux ratio of [^3H]prazosin” value (human BCRP; 0.01 μmol/L) of the same molecule?
**A.** 4.6±0.4

**Q.** And the “net flux ratio of [^3H]prazosin” value (human BCRP; 0.1 μmol/L)?
**A.** 4.0±0.3

**Q.** What about the “net flux ratio of [^3H]prazosin” value (human BCRP; 0.5 μmol/L) of the same molecule?
**A.** 2.7±0.2

**Q.** And the “net flux ratio of [^3H]prazosin” value (human BCRP; 1 μmol/L)?
**A.** 1.8±0.2

**Q.** What about the “net flux ratio of [^3H]prazosin” value (human BCRP; 5 μmol/L) of the same molecule?
**A.** 1.3±0.2

**Q.** What about the “net flux ratio of [^3H]prazosin” value (human BCRP; 10 μmol/L) of the same molecule?
**A.** 1.1±0.1

**Q.** And the GI50 [5]?
**A.** 8.71 ± 4.56 nM

**Q.** And the fraction unbound ([6]; dog, dogs, 0.2, 2, and 20 μmol/L)?
**A.** 0.02 to 0.026

**Q.** What about the fraction unbound ([6]; human, humans, 0.2, 2, and 20 μmol/L) of the same molecule?
**A.** 0.004 to 0.006

**Q.** And the fraction unbound ([6]; monkey, monkeys, 0.2, 2, and 20 μmol/L)?
**A.** 0.015 to 0.02

**Q.** What about the fraction unbound ([6]; mouse, mice, 0.2, 2, and 20 μmol/L) of the same molecule?
**A.** 0.005 to 0.012

**Q.** And the fraction unbound ([6]; rat, rats, 0.2, 2, and 20 μmol/L)?
**A.** 0.011 to 0.027
